In ChEMBL document CHEMBL1201862, “PubChem BioAssay data set” (2004):
Calls of active or inactive are those of the source.

Target: T1, Cytochrome P450 1A2 (Homo sapiens, UniProt P05177);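 note: PubChem cytochrome P450 panel assay, CYP1A2 panel member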
T1 sequence (P05177 whole entry): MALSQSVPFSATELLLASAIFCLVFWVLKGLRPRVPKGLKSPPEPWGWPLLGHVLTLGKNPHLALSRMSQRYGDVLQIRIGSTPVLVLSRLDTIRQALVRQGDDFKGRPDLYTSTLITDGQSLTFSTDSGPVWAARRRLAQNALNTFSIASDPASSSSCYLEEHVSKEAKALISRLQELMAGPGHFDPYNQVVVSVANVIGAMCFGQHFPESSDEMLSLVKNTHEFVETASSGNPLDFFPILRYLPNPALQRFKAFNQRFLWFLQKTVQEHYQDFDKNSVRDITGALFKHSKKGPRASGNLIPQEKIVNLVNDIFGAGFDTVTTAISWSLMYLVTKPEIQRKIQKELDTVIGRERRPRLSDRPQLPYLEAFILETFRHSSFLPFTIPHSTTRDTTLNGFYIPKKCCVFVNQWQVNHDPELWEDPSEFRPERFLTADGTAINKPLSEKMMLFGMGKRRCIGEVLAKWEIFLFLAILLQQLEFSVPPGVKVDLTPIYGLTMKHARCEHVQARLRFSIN
Assay: not given
Details: not given

Structure (SMILES) | AC50
C[C@@H](Cc1ccc(Cl)cc1Cl)NO | 0.251 µM (active)
CCCCC/N=c1\ccn(Cc2ccccc2)c2ccccc12 [CP-339818] | 25.1 µM (inconclusive)
COc1ccccc1NC(=O)C1=C(C)Nc2nnnn2C1c1cccc(Br)c1 (centres undefined) | 31.6 µM (inconclusive)
Cc1c(NC(=O)/C=C/c2cn(-c3ccccc3)nc2-c2ccc(F)cc2)c(=O)n(-c2ccccc2)n1C | 28.2 µM (inconclusive)
CC1=CC(C)(C)N(C)C(=O)N1c1ccc(Cl)cc1 | 17.8 µM (inconclusive)
COc1ccc(CNc2ccnc(-c3ccccc3CN(C)C)n2)c(OC)c1 | 15.8 µM (inconclusive)
CCOC(=O)CSCC(NC(=O)OC(C)(C)C)C(=O)OCC (centres undefined) | 25.1 µM (inconclusive)
Cc1cccc(CN2CCN([C@@H](c3ccccc3)c3ccc(Cl)cc3)CC2)c1 | 10 µM (inconclusive)
CC#C[C@]1(O)CC[C@H]2[C@@H]3CCC4=CC(=O)CCC4=C3[C@H](c3ccc(N(C)C)cc3)C[C@@]21C | 25.1 µM (inconclusive)
Cc1cccc2cc(CN(Cc3ccccc3)C(=O)c3cccc(F)c3)c(Cl)nc12 | 11.2 µM (inconclusive)
CCNc1ncc2nc(-c3cccs3)c(=O)n(Cc3cccc(OC)c3)c2n1 | 0.126 µM (inconclusive)
O=C(O)c1ccccc1C(=O)NNc1ccc(Cl)cc1 | 6.31 µM (inconclusive)
CCS(=O)(=O)c1ccc(O)c(NC(=O)Nc2ccccc2)c1 | 20 µM (inconclusive)

Target: Cytochrome P450 2C9 (Homo sapiens, UniProt P11712)
Assay: not given
Details: not given

Sequence of Cytochrome P450 2C9 (P11712 whole entry): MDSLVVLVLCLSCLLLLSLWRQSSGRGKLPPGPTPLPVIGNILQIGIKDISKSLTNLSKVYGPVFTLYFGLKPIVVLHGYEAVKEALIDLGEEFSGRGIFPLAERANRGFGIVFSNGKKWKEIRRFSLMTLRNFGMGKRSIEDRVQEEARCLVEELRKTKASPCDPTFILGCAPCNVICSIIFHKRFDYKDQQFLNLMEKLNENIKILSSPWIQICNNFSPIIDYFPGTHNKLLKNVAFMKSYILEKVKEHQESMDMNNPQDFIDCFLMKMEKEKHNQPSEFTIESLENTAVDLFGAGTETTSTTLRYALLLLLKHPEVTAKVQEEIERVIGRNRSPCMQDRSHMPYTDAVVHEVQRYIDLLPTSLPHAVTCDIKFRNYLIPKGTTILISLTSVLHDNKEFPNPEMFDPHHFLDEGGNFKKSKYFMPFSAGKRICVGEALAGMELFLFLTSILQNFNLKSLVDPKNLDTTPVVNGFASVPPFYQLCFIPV

Structure (SMILES) | AC50
Cc1c(NC(=O)/C=C/c2cn(-c3ccccc3)nc2-c2ccc(F)cc2)c(=O)n(-c2ccccc2)n1C | 20 µM (inconclusive)
CC1=CC(C)(C)N(C)C(=O)N1c1ccc(Cl)cc1 | 31.6 µM (inconclusive)
CCOC(=O)CSCC(NC(=O)OC(C)(C)C)C(=O)OCC (centres undefined) | 14.1 µM (inconclusive)
CCS(=O)(=O)c1ccc(O)c(NC(=O)Nc2ccccc2)c1 | 7.08 µM (inconclusive)

Target: T2, Heat shock factor protein 1 (Mus musculus, UniProt P38532)
T2 sequence (P38532 whole entry): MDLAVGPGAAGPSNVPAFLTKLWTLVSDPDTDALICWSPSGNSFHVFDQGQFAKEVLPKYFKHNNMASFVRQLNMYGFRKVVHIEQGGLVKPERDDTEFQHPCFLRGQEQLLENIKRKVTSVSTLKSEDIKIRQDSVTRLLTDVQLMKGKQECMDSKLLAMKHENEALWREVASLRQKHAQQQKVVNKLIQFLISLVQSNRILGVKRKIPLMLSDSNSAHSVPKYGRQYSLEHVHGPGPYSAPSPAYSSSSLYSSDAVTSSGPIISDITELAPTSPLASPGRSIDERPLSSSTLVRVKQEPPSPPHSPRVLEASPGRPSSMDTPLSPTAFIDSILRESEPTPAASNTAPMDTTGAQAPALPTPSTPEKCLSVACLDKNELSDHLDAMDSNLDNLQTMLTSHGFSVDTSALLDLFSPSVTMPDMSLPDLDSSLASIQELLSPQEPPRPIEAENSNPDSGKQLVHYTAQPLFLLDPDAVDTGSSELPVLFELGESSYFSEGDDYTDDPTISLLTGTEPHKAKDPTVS
Assay: enhancement of HSF1-driven luciferase signal – cell-based, NIH3T3, luminescence, dose retest, confirmation (AID 435004);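 note: stress induced by proteasome inhibitor MG132 added 30 min after compound; luciferase reporter driven by HSF1 response element in NIH3T3 cells; actives raise luminescence as potentiators of the MG132 stress response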
Format: functional
Details: not given

Structure (SMILES) | EC50
COc1cc2nc(NC(=O)c3ccc(Cl)cc3)sc(=O)c2cc1OC | > 260 µM (inactive)
CCOc1ccc(C(=O)NC2CC3CCCC(C2)N3CC(C)C)cc1 (centres undefined) | > 260 µM (inactive)
O=C(NC(CO)(CO)CO)c1coc(=O)c(Br)c1 | > 260 µM (inactive)
CCO/C(O)=C/C(C)=N/c1cc(C)nn1-c1ccccc1 | > 260 µM (inactive)
COc1ccc2c(c1)CCc1c(C(=O)N3CC4(C)CC3CC(C)(C)C4)noc1-2 (centres undefined) | > 260 µM (inactive)
CC(C)CCNC1c2ccccc2C(=O)N1Cc1ccccc1 (centres undefined) | > 260 µM (inactive)
Cc1cc(C(=O)N2CCN(c3ccccn3)CC2)c(C)o1 | > 260 µM (inactive)
Cc1ccc2oc(C(Cl)(Cl)Cl)cc(=O)c2c1 | 27.9 µM (active)
O=C(c1cn(CC(=O)N2CCCCC2)c2ccccc12)C1CC1 | > 260 µM (inactive)
CC(=N)/C(C#N)=C(/O)CSc1nnc(-c2ccccc2Br)o1 | > 260 µM (inactive)

Target: Cytochrome P450 2D6 (Homo sapiens, UniProt P10635);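 note: CYP2D6 member of a cytochrome P450 panel assay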
Assay: not given
Details: not given

Sequence of Cytochrome P450 2D6 (P10635 whole entry): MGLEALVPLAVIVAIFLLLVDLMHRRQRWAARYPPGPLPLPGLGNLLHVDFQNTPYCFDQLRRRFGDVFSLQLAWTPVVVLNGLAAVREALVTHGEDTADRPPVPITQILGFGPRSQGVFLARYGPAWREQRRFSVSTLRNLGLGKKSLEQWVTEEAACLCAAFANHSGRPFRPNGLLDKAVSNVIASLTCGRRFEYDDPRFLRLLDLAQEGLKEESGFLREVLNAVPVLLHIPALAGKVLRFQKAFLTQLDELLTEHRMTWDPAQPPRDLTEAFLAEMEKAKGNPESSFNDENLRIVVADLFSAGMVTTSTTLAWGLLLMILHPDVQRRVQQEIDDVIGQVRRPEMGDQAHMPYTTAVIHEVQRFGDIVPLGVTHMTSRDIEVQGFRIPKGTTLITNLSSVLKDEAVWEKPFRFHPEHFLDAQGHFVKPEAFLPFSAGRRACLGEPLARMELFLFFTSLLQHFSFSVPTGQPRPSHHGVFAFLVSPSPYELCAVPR

Structure (SMILES) | AC50
COc1ccccc1NC(=O)C1=C(C)Nc2nnnn2C1c1cccc(Br)c1 (centres undefined) | 15.8 µM (inconclusive)
Cc1cccc2cc(CN(Cc3ccccc3)C(=O)c3cccc(F)c3)c(Cl)nc12 | 15.8 µM (inconclusive)

Target: T3, RNA-binding protein pos-1 (Caenorhabditis elegans, UniProt G5EF15)
T3 sequence (G5EF15 whole entry): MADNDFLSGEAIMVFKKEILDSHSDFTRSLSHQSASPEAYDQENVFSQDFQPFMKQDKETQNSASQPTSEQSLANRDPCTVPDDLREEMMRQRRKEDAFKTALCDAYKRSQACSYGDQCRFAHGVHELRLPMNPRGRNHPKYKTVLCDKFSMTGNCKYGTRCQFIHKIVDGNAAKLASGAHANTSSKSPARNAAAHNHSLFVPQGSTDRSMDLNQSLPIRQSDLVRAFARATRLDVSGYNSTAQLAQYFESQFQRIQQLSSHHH
Assay: disruptors of C. elegans POS-1 RNA interaction – biochemical, fluorescence polarization, dose response (AID 1964);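 note: purified POS-1 fused to maltose binding protein made in E. coli; potency of compounds blocking POS-1 binding to fluorescent RNA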
Details: not given

Structure (SMILES) | EC50
COc1ccc(C2C(C#N)=C(N)OC3=C2C(=O)CC(C)(C)C3)cc1Cn1cc([N+](=O)[O-])cn1 (centres undefined) | > 300 µM (not active)
CCN(CC)CCN/C=C1/C(=O)NC(=O)N(Cc2ccccc2)C1=O | > 300 µM (not active)
CC(=O)Nc1ccc(/C=C/C(=O)c2ccc3c(c2)OCCO3)cc1 | > 300 µM (not active)
COc1ccc(C2C(C#N)=C(N)OC3=C2C(=O)CC(C)(C)C3)cc1Cn1nc(C)c([N+](=O)[O-])c1C (centres undefined) | > 300 µM (not active)
O=C(NCc1ccccn1)C1Nc2ccc(C(F)(F)F)cc2C2C=CCC12 (centres undefined) | > 300 µM (not active)
O=C(NCCN1CCOCC1)c1cccn2c(=O)c3c4c(sc3nc12)CCCC4 | > 300 µM (not active)
O=c1[nH][nH]c2cc(=O)n(-c3ccc(Cl)cc3)nc12 | 15.4 µM (active)

Target: Cytochrome P450 3A4 (Homo sapiens, UniProt P08684);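 note: CYP3A4 tested as one member of a cytochrome P450 panel screen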
Assay: not given
Details: not given

Sequence of Cytochrome P450 3A4 (P08684 whole entry): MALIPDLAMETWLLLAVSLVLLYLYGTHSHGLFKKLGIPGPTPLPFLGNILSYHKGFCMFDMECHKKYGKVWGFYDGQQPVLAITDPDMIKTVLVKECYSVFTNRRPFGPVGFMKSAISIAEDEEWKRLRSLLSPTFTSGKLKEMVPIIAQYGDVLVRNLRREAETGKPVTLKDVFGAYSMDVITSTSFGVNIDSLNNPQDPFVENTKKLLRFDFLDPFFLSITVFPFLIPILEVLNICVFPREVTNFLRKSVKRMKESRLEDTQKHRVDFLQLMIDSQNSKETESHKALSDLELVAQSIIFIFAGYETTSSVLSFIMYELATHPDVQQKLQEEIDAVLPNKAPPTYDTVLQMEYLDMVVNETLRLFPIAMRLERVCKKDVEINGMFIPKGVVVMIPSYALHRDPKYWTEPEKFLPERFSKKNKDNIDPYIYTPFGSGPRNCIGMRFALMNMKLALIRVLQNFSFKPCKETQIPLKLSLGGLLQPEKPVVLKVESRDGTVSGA

Structure (SMILES) | AC50
CCCCC/N=c1\ccn(Cc2ccccc2)c2ccccc12 [CP-339818] | 15.8 µM (inconclusive)
Cc1c(NC(=O)/C=C/c2cn(-c3ccccc3)nc2-c2ccc(F)cc2)c(=O)n(-c2ccccc2)n1C | 25.1 µM (inconclusive)
CCNc1ncc2nc(-c3cccs3)c(=O)n(Cc3cccc(OC)c3)c2n1 | 12.6 µM (inconclusive)

Test system: not listed separately
Assay: cells
Format: functional
Details: not given

Structure (SMILES) | IC50
CN1CCN(c2c(F)cc3c(=O)c(C(=O)O)cn4c3c2SCC4)CC1 | 8.05 µM (active)
Cc1ccc2cc3c(nc2c1)OCC3 | > 50 µM (active)
Cc1ccnc(NC(=O)COc2ccc3c(c2)CCC3)c1 | 24.5 µM (active)
CCOC(=O)COc1cc(O)c2c(=O)cc(-c3ccccc3)oc2c1 | 0.86 µM (active)
O=C(COC(=O)c1cc(Cl)ccc1O)c1ccc2c(c1)OCO2 | 12.1 µM (active)
COC(=O)CN(C#N)c1nc(SC)nc(N(C)C)n1 | 18.9 µM (active)
O=C(Oc1cccc2cccnc12)c1cccc([N+](=O)[O-])c1 | 10.9 µM (active)

Target: T4, Zinc finger protein mex-5 (Caenorhabditis elegans, UniProt Q9XUB2)
T4 sequence (Q9XUB2 whole entry): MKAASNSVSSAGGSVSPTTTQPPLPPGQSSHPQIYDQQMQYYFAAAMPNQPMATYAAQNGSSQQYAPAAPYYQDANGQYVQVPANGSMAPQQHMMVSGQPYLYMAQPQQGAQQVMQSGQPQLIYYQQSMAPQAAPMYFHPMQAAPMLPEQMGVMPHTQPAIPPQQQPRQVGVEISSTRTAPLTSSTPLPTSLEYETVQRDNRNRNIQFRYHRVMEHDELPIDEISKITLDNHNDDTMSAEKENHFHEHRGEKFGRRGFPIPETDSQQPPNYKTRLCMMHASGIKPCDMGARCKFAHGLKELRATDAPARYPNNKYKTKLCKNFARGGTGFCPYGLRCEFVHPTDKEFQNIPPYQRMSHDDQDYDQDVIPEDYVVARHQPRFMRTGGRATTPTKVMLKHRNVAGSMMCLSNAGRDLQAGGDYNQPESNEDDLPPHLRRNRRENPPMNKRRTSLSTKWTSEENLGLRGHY
Assay: potency of MEX-5 RNA-binding blockers – biochemical, C. elegans, fluorescence polarization, dose response (AID 1960)
Details: not given

Structure (SMILES) | EC50
COc1ccc(C2C(C#N)=C(N)OC3=C2C(=O)CC(C)(C)C3)cc1Cn1cc([N+](=O)[O-])cn1 (centres undefined) | > 300 µM (not active)
CCN(CC)CCN/C=C1/C(=O)NC(=O)N(Cc2ccccc2)C1=O | > 300 µM (not active)
CC(=O)Nc1ccc(/C=C/C(=O)c2ccc3c(c2)OCCO3)cc1 | > 300 µM (not active)
COc1ccc(C2C(C#N)=C(N)OC3=C2C(=O)CC(C)(C)C3)cc1Cn1nc(C)c([N+](=O)[O-])c1C (centres undefined) | > 300 µM (not active)
O=C(NCc1ccccn1)C1Nc2ccc(C(F)(F)F)cc2C2C=CCC12 (centres undefined) | > 300 µM (not active)
O=C(NCCN1CCOCC1)c1cccn2c(=O)c3c4c(sc3nc12)CCCC4 | > 300 µM (not active)
O=c1[nH][nH]c2cc(=O)n(-c3ccc(Cl)cc3)nc12 | 4.09 µM (active)

Test system: not listed separately
Assay: Luminescence Cell-Based Dose Retest to Confirm Inhibitors of Cancer Stem Cells. [Related pubchem assays (depositor defined):AID2717, AID2721]
Format: functional
Details: Homo sapiens

Structure (SMILES) | AC50
Cc1ccc(C(=O)Cn2nnc3c(sc4nc5c(c(-c6ccccc6)c43)CCC5)c2=O)cc1 | 462 nM (active)
COc1ccc2c(c1)CCc1c(C(=O)N3CC4(C)CC3CC(C)(C)C4)noc1-2 (centres undefined) | < 160 nM (active)
O=C(O)c1ccccc1C(=O)NNc1ccc(Cl)cc1 | 983 nM (active)
CCN1CCN(c2cc(C(C)(C)C)nc3c(-c4ccccc4)c(C)nn23)CC1 | 5680 nM (active)

Test system: INS1
Assay: INS-1E survival protection against cytokine death – cell-based, luminescence, retest, dose response (AID 449756);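 note: cell death triggered by IL-1 beta plus TNF-alpha plus IFN-gamma mixture; protective hits raise ATP signal compared with cytokine alone wells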
Format: functional
Details: Rattus norvegicus

Structure (SMILES) | AC50
COc1ccc(-c2ccc3c(c2)S(=O)(=O)c2cccc(C(=O)NCCOc4ccccc4Cl)c2C3=O)cc1OC | 3.41 µM (active)
Cc1nc(C)c(-c2csc(NCCc3ccccc3)n2)s1 | 18 µM (active)
CC(=O)c1ccc(NC(S)=NC(C)c2ccc(Cl)cc2Cl)cc1 (centres undefined) | 15.6 µM (active)

Target: Cytochrome P450 2C19 (Homo sapiens, UniProt P33261)
Assay: Cytochrome panel assay with activity outcomes. Panel member name: p450-cyp2c19 Compounds with AC50 equal or less than 10 uM are considered active
Format: functional
Details: read-out: AC50

Sequence of Cytochrome P450 2C19 (P33261 whole entry): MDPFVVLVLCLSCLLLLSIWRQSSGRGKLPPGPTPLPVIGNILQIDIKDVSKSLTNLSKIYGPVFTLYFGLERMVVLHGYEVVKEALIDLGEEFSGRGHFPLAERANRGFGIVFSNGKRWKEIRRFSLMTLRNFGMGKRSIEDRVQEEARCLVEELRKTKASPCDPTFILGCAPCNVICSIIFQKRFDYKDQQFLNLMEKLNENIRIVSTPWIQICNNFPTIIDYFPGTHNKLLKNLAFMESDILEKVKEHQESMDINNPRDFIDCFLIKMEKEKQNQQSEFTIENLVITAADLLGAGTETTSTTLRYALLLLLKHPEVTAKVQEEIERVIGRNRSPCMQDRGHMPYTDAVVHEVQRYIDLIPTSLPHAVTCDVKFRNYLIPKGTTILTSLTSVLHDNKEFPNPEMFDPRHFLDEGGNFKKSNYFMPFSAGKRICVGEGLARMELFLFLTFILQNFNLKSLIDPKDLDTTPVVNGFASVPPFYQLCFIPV

Structure (SMILES) | AC50
Cc1ccc(C(=O)Cn2nnc3c(sc4nc5c(c(-c6ccccc6)c43)CCC5)c2=O)cc1 | 25.1 µM (inconclusive)
Cc1cccc(CN2CCN([C@@H](c3ccccc3)c3ccc(Cl)cc3)CC2)c1 | 2.51 µM (inconclusive)
O=C(O)c1ccccc1C(=O)NNc1ccc(Cl)cc1 | 5.01 µM (inconclusive)
CCS(=O)(=O)c1ccc(O)c(NC(=O)Nc2ccccc2)c1 | 39.8 µM (inconclusive)
